The source of these data is ChEMBL document CHEMBL4330112, “Monodisperse oligoethylene glycols modified Camptothecin, 10-Hydroxycamptothecin and SN38 prodrugs” (Bioorg Med Chem Lett, 2019).

Values after ≈ are worked out from the molar mass of the structure shown. Bounds are passed on as bounds.

Data set [1] can be described thus: Solubility of the compound in phosphate buffered saline by UV-spectroscopic analysis. The format is physicochemical.
For a further data set, the system named is HepG2. The data set is described as follows: Cytotoxicity against human HepG2 cells after 72 hrs by MTT assay. Type of data set: functional, cell-based. Particulars: HepG2, 72 h. (In general: Formazan colour is commonly taken as a measure of viable cells.)
The next data set relates to MCF7. Briefly: Cytotoxicity against human MCF7 cells after 72 hrs by MTT assay. Particulars: MCF7, 72 h. Type of data set: functional, cell-based.
A short description of data set [2]: Prodrug conversion in Sprague-Dawley rat plasma assessed as 10-hydroxycamptothecin formation at 4 mg measured within 2 hrs by UV-based RP-HPLC analysis. Type of data set: ADME, cell-free.
Data set [3] is described as follows: Prodrug conversion in Sprague-Dawley rat plasma assessed as SN38 formation at 4 mg measured within 2 hrs by UV-based RP-HPLC analysis. Type of data set: ADME, cell-free.
[4] abbreviates: phosphate buffered saline, read-out: solubility.

As to `CC[C@@]1(O)C(=O)OCc2c1cc1n(c2=O)Cc2cc3cc(OCCOCCOCCOCCOCCO)ccc3nc2-1`, the solubility (in general, how much of the substance goes into solution per volume) in data set [1] (setting [4]) is 6.34 mg/mL (≈ 10.8 mM). The results for the IC50 in the data set with HepG2 and in the data set with MCF7 were 70.3 µM and 95.8 µM, respectively.
Turning to `CC[C@@]1(O)C(=O)OCc2c1cc1n(c2=O)Cc2cc3cc(OC(=O)OCCOCCOCCOCCOCCOCCOCCOCCOCCOCCOCCOCCOCCOCCOCCOCCOCCOCCOCCOCCOCCOCCOCCOCCOC)ccc3nc2-1`, the IC50 (usually the midpoint of a concentration-inhibition curve) worked out at 2.69 µM in the data set with HepG2 and 6.76 µM in the data set on MCF7.
In the case of `CC[C@@]1(OC(=O)OCCOCCOCCOCCOCCOCCOCCOCCOCCOCCOCCOCCOCCOCCOCCOC)C(=O)OCc2c1cc1n(c2=O)Cc2cc3ccccc3nc2-1`, the solubility in data set [1] (setting [4]) was 114 mg/mL (≈ 106 mM). For the same molecule, the IC50 was 7.07 µM in the data set on HepG2 and 8.53 µM in the data set on MCF7.
For `CC[C@@]1(O)C(=O)OCc2c1cc1n(c2=O)Cc2cc3cc(OCCOCCOCCOCCOCCOCCOCCOCCO)ccc3nc2-1`, in that order: 249 mg/mL (≈ 347 mM), > 100 µM and > 100 µM.
Take `CCc1c2c(nc3ccc(OC(=O)OCCOCCOCCOCCOCCOCCOCCOCCOCCOCCOCCOCCOCCOCCOCCOC)cc13)-c1cc3c(c(=O)n1C2)COC(=O)[C@]3(O)CC`: the values for the IC50 with HepG2 and in the data set with MCF7 were 2.31 µM and 4.72 µM, respectively. For the same molecule, the Drug metabolism entry in data set [2] and in data set [3] was “Metabolite_Detected” each time.
On to `CC[C@@]1(OC(=O)OCCOCCOCCOCCOCCOCCOCCOCCOCCOCCOCCOCCOCCOCCOCCOCCOCCOCCOCCOCCOCCOCCOCCOCCOC)C(=O)OCc2c1cc1n(c2=O)Cc2cc3ccccc3nc2-1`, for which, in data set [1] (setting [4]), the solubility was determined as 272 mg/mL (≈ 186 mM). For the same molecule, the IC50 was 6.17 µM in the data set with HepG2 and 8.62 µM with MCF7.
With `CC[C@@]1(O)C(=O)OCc2c1cc1n(c2=O)Cc2cc3cc(OC(=O)OCCOCCOCCOCCOCCOCCOCCOCCOCCOCCOCCOCCOCCOCCOCCOCCOCCOCCOCCOC)ccc3nc2-1`, the IC50 in the data set on HepG2 was found to be 2.2 µM; in the data set with MCF7, 6.09 µM.
Take `CC[C@@]1(OC(=O)OCCOCCOCCOCCOCCOCCOCCOCCOCCOCCOCCOC)C(=O)OCc2c1cc1n(c2=O)Cc2cc3ccccc3nc2-1`: the solubility in data set [1] (setting [4]) is 79.5 mg/mL (≈ 89.2 mM). Besides, the IC50 stood at 4.78 µM in the data set with HepG2 and 8.48 µM in the data set on MCF7.
On to `CC[C@@]1(OC(=O)OCCOCCOCCOCCOCCOCCOCCOCCOC)C(=O)OCc2c1cc1n(c2=O)Cc2cc3ccccc3nc2-1`, for which the solubility in data set [1] (setting [4]) was found to be 0.38 mg/mL (≈ 0.501 mM). The IC50 was found to be 5.47 µM in the data set with HepG2 and 7.42 µM in the data set with MCF7.
Turning to `CC[C@@]1(O)C(=O)OCc2c1cc1n(c2=O)Cc2cc3cc(OCCOCCOCCOCCOCCOCCO)ccc3nc2-1`, the solubility in data set [1] (setting [4]) was found to be 11 mg/mL (≈ 17.4 mM). In addition, the IC50 was 50 µM with HepG2 and > 100 µM in the data set on MCF7.
For the molecule `CC[C@@]1(O)C(=O)OCc2c1cc1n(c2=O)Cc2cc3cc(OC(=O)OCCOCCOCCOCCOCCOCCOCCOCCOCCOCCOCCOCCOC)ccc3nc2-1`, the IC50 is 2.21 µM in the data set with HepG2 and 2.85 µM in the data set on MCF7. The Drug metabolism entry in data set [2] and in data set [3] was “Metabolite_Detected” throughout.
Take `CC[C@@]1(OC(=O)OCCOCCOCCOCCOCCOCCOCCOCCOCCOCCOCCOCCOCCOCCOC)C(=O)OCc2c1cc1n(c2=O)Cc2cc3ccccc3nc2-1`: the solubility in data set [1] (setting [4]) is 94.1 mg/mL (≈ 91.9 mM). The IC50 with HepG2 is 5.15 µM; in the data set with MCF7 it was 7.43 µM.
With `CC[C@@]1(O)C(=O)OCc2c1cc1n(c2=O)Cc2cc3cc(OCCOCCOCCOCCOCCOCCOCCOCCOCCOCCO)ccc3nc2-1`, the IC50 in the data set on HepG2 and in the data set with MCF7 was > 100 µM in each case.
Consider `CC[C@@]1(O)C(=O)OCc2c1cc1n(c2=O)Cc2cc3cc(OCCOCCOCCOCCOCCOCCOCCOCCOCCOCCOCCO)ccc3nc2-1`, for which the IC50 in the data set with HepG2 and with MCF7 was > 100 µM throughout.
Turning to `CCc1c2c(nc3ccc(O)cc13)-c1cc3c(c(=O)n1C2)COC(=O)[C@]3(O)CC` [7-ETHYL-10-HYDROXYCAMPTOTHECIN], the solubility in data set [1] (setting [4]) is 0.00087 mg/mL (≈ 0.00222 mM). In addition, the IC50 is 0.48 µM in the data set with HepG2 and 1.25 µM in the data set on MCF7.
The matching figures for `CC[C@@]1(O)C(=O)OCc2c1cc1n(c2=O)Cc2cc3ccccc3nc2-1` [CAMPTOTHECIN]: 0.00069 mg/mL (≈ 0.00198 mM), 0.66 µM and 0.68 µM.
As to `CC[C@@]1(O)C(=O)OCc2c1cc1n(c2=O)Cc2cc3cc(OCCOCCOCCOCCOCCOCCOCCOCCOCCO)ccc3nc2-1`, the IC50 in the data set with HepG2 and in the data set with MCF7 was > 100 µM throughout.
As to `CC[C@@]1(O)C(=O)OCc2c1cc1n(c2=O)Cc2cc3cc(OC(=O)OCCOCCOCCOCCOCCOCCOCCOCCOCCOCCOCCOCCOCCOCCOCCOCCOCCOCCOCCOCCOC)ccc3nc2-1`, the IC50 in the data set on HepG2 turned out to be 3.62 µM; in the data set on MCF7, 6.88 µM.
With `CC[C@@]1(O)C(=O)OCc2c1cc1n(c2=O)Cc2cc3cc(O)ccc3nc2-1` [HYDROXYCAMPTOTHECIN], the solubility in data set [1] (buffer) was found to be 0.00094 mg/mL (≈ 0.00258 mM). The IC50 in the data set with HepG2 amounted to 1.47 µM; in the data set on MCF7 it was 3.58 µM.
Consider `CC[C@@]1(O)C(=O)OCc2c1cc1n(c2=O)Cc2cc3cc(OC(=O)OCCOCCOCCOCCOCCOCCOCCOCCOC)ccc3nc2-1`, for which, in data set [1] (setting [4]), the solubility came out at 85.1 mg/mL (≈ 110 mM). For the same molecule, the IC50 came to 3.06 µM with HepG2 and 5.39 µM with MCF7.
Regarding `CC[C@@]1(O)C(=O)OCc2c1cc1n(c2=O)Cc2cc3cc(OC(=O)OCCOCCOCCOCCOCCOCCOCCOCCOCCOCCOCCOCCOCCOCCOCCOC)ccc3nc2-1`, the IC50 with HepG2 was found to be 1.71 µM; in the data set on MCF7, 4.47 µM.
Turning to `CC[C@@]1(O)C(=O)OCc2c1cc1n(c2=O)Cc2cc3cc(OCCOCCOCCOCCOCCOCCOCCO)ccc3nc2-1`, the solubility in data set [1] (setting [4]) came to 73.3 mg/mL (≈ 109 mM). The IC50 with HepG2 is 62.4 µM; with MCF7 it was > 100 µM.
As to `CC[C@@]1(O)C(=O)OCc2c1cc1n(c2=O)Cc2cc3cc(OC(=O)OCCOCCOCCOCCOCCOCCOCCOCCOCCOCCOCCOC)ccc3nc2-1`, the IC50 with HepG2 was 2.51 µM; in the data set on MCF7 it was 4.64 µM.
With `CC[C@@]1(O)C(=O)OCc2c1cc1n(c2=O)Cc2cc3cc(OCCOCCOCCOCCOCCOCCOCCOCCOCCOCCOCCOCCO)ccc3nc2-1`, the IC50 in the data set on HepG2 and with MCF7 was > 100 µM in each case.
Turning to `CCc1c2c(nc3ccc(OC(=O)OCCOCCOCCOCCOCCOCCOCCOCCOCCOCCOCCOCCOCCOCCOCCOCCOCCOCCOCCOCCOC)cc13)-c1cc3c(c(=O)n1C2)COC(=O)[C@]3(O)CC`, the IC50 in the data set on HepG2 came to 1.98 µM; in the data set on MCF7, 3.08 µM.
For `CC[C@@]1(O)C(=O)OCc2c1cc1n(c2=O)Cc2cc3cc(OC(=O)OCCOCCOCCOCCOCCOCCOCCOCCOCCOCCOCCOCCOCCOCCOC)ccc3nc2-1`, in that order: 1.79 µM and 5.61 µM.
For the molecule `CC[C@@]1(O)C(=O)OCc2c1cc1n(c2=O)Cc2cc3cc(OCCOCCOCCOCCO)ccc3nc2-1`, in data set [1] (setting [4]), the solubility is 0.95 mg/mL (≈ 1.76 mM). The IC50 with HepG2 was determined as 41.8 µM; with MCF7, 74.6 µM.
For `CC[C@@]1(OC(=O)OCCOCCOCCOCCOCCOCCOCCOCCOCCOCCOCCOCCOCCOCCOCCOCCOC)C(=O)OCc2c1cc1n(c2=O)Cc2cc3ccccc3nc2-1`, in that order: 136 mg/mL (≈ 122 mM), 4.72 µM and 6.17 µM.
For `CC[C@@]1(O)C(=O)OCc2c1cc1n(c2=O)Cc2cc3cc(OC(=O)OCCOCCOCCOCCOCCOCCOCCOCCOCCOCCOC)ccc3nc2-1`, in that order: 142 mg/mL (≈ 165 mM), 2.08 µM and 5.44 µM.
For `CC[C@@]1(OC(=O)OCCOCCOCCOCCOCCOCCOCCOCCOCCOCCOC)C(=O)OCc2c1cc1n(c2=O)Cc2cc3ccccc3nc2-1`, in that order: 0.52 mg/mL (≈ 0.614 mM), 4.48 µM and 10.3 µM.
On to `CC[C@@]1(OC(=O)OCCOCCOCCOCCOCCOCCOCCOCCOCCOCCOCCOCCOC)C(=O)OCc2c1cc1n(c2=O)Cc2cc3ccccc3nc2-1`, for which the solubility in data set [1] (setting [4]) stood at 82.8 mg/mL (≈ 88.6 mM). Moreover, the IC50 in the data set on HepG2 stood at 5.97 µM; in the data set with MCF7, 3.36 µM.
`CC[C@@]1(OC(=O)OCCOCCOCCOCCOCCOCCOCCOCCOCCOCCOCCOCCOCCOCCOCCOCCOCCOCCOCCOCCOC)C(=O)OCc2c1cc1n(c2=O)Cc2cc3ccccc3nc2-1`: in data set [1] (setting [4]), the solubility turned out to be 183 mg/mL (≈ 142 mM). The IC50 worked out at 6.87 µM in the data set on HepG2 and 8.09 µM with MCF7.
For the molecule `CC[C@@]1(O)C(=O)OCc2c1cc1n(c2=O)Cc2cc3cc(OC(=O)OCCOCCOCCOCCOCCOCCOCCOCCOCCOCCOCCOCCOCCOCCOCCOCCOC)ccc3nc2-1`, the IC50 amounted to 2.75 µM in the data set on HepG2 and 6.16 µM in the data set with MCF7.
In the case of `CC[C@@]1(OC(=O)OCCOCCOCCOCCOCCOCCOCCOCCOCCOCCOCCOCCOCCOCCOCCOCCOCCOCCOCCOC)C(=O)OCc2c1cc1n(c2=O)Cc2cc3ccccc3nc2-1`, the solubility in data set [1] (setting [4]) amounted to 143 mg/mL (≈ 115 mM). For the same molecule, the figures for the IC50 in the data set with HepG2 and with MCF7 were 3.61 µM and 7.43 µM, respectively.
